Assay results taken from patent publication US11896009B2, “Bioactive composition for improving stress tolerance of plants” (FYTEKO, priority 2015, dated 2024).

Test: Antioxidant test, DPPH radical scavenging (Example 9)
Format: biochemical
Description: The antioxidant activity of oligoferulates prepared as described in example 1, ferulic acid (W518301, Sigma-Aldrich), gallic acid (27645, Sigma-Aldrich) and ascorbic acid (A0278, Sigma-Aldrich) was determined using a method based on the scavenging of the stable radical 2,2-diphenyl-1-picrylhydrazyl (DPPH) (Brand Williams et al, Food Sci Technol-Lebens Wissens Technol. 1995; 28:25-30) and the results expressed as IC50 (concentration of antioxidant which reduces the free radical DPPH⋅ about 50%). This method is frequently used to predict the antioxidant activities of different molecules.

SMILES: O=C1O[C@H]([C@@H](O)CO)C(O)=C1O [ascorbic acid]
- antioxidant activity IC50 (concentration which reduces the free radical DPPH about 50%): 5 µg/mL

SMILES: COc1cc(/C=C/C(=O)O)ccc1O [ferulic acid]
- antioxidant activity IC50 (concentration which reduces the free radical DPPH about 50%): 25 µg/mL

SMILES: O=C(O)c1cc(O)c(O)c(O)c1 [gallic acid]
- antioxidant activity IC50 (concentration which reduces the free radical DPPH about 50%): 2 µg/mL
